Measured values reported in paper PMC6934184, “Selective DNA-PKcs inhibition extends the therapeutic index of localized radiotherapy and chemotherapy” (The Journal of Clinical Investigation, 2019).

Target: T1, ABL1 H396P (Homo sapiens, UniProt P00519, H396P)
T1 construct: purchased Thermo Fisher Scientific (Life Technologies) SelectScreen
Test: SelectScreen LanthaScreen
Type: binding
Conditions: read-out: % displacement
In short: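 NU5455 was profiled across the SelectScreen Broad panel of kinase activity and binding assays. Z'LYTE reactions such as CSF1R ran at apparent Km ATP, while the Adapta CAMK1 assay used ATP listed as 10. Values are given as percent.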

Compound `CN(C(=O)CN1CCOCC1)c1ccc2sc3c(-c4cccc5c(=O)cc(N6CC7CCC(C6)O7)oc45)cccc3c2c1` [NU5455] has an inhibition at 1 µM of 0.6%.
